Where “and” joins values, the source holds several entries; their conditions need not be identical. Equal values may be shown once.
Columns and labels:
eIF4E:eIF4G interaction = eIF4E:eIF4G interaction (Homo sapiens, UniProt P06730); experiment: Electro-chemiluminescent binding assay, eIF4E:eIF4G, SW620 cell lysates; assay type: biochemical; set-up: endogenous in cells; host or cells: SW620 cells (lysates); conditions: for eIF4G:eIF4E luminescence signal normalised to DMSO control: SW620, Expt 1, Expt 2, Fig. 4d
Protocol: This assay uses plates with carbon electrodes and electro-chemiluminescent labels (SULFO-TAGs) that are conjugated to detection antibodies. When an electric current is applied to the plate electrodes the SULFO-TAG labels will emit light that is measured to quantify analytes in the sample. […] The plates were washed with 3 ×150 µl/well MSD wash buffer (cat#R61AA-1; 0.2% Tween-20 in PBS), then blocked with 150 µl/well block buffer (MSD, cat# R93AA) for 1 h. […] The incubated plates were washed 4x in 150 µl in MSD wash buffer and were re-blocked by the addition of 25 μl of blocking buffer containing a 1:500 dilution of the secondary antibody and incubated for 1 hr at RT with rotational shaking. […] Plates were then washed again 4x in 150 µl in MSD wash buffer and 25 μl of a 1:50 dilution of Goat anti-rabbit Sulfo-Tag (MSD, Cat# R32AB-1) in MSD blocking buffer was added and the plates incubated for 1 h at RT with rotational shaking. After a final wash step, 150 μl Read Buffer T4X (MSD, Cat# R92-TC2) was added and the plate read using the MSD QuickPlex SQ 120 plate reader.

eIF4E W73F = target: T1, eIF4E W73F (Homo sapiens, UniProt P06730, W73F); experiment: CETSA in eIF4E-dTAG model expressing W73F eIF4E; assay type: cell-based; conditions: intact cells
T1 construct: expressed in transfected cells; host or cells: H1299 eIF4E-dTAG clone C3-1, eIF4E-dTAG depleted with dTAG^V-1 before compound
Protocol: Cells (1.5 × 10^6 cells) were plated into 75 cm^2 flasks and allowed to attached overnight. After treatment with compound 4 or 5 for 6 h, they were harvested by trypsinisation and washed x2 in ice cold PBS. Cells were resuspended in 1 ml of cold PBS supplemented with protease and phosphatase inhibitors (Fisher Scientific, cat#1861281). Resuspended cells were divided into 100 μl aliquots and centrifuged at 300 x g for 3 min at 4 °C. Following centrifugation, 75μl of supernatant was removed and cells resuspended in the remaining volume. Cell suspensions were heated at 40.9, 43.7, 48.1, 52.9, 57.6, 62.4, 67.2, 71.9, 76.3 and 79.1 °C for 3 mins followed by cooling at 20 °C for 3 min[25]. Suspensions were freeze-thawed twice using liquid nitrogen. Soluble fractions were separated from cell debris by centrifuging at 20,000 x g for 30 min at 4 °C. Samples were then analysed by Western Blot.
Supplementary Fig. 18. Comparison of compound 4 binding to wild-type or […]
Cells were treated with dTAGV-1 (1 μM) for 16 hr. Compound 4 (10 μM) or compound 5 (10 μM) was then added for 6 hrs.
Vi nculin was used for loading control. Blots are from one biological repeat. b […]
was used as loading control . c Cells were treated with dTAGV -1 (1 μM) for 16 hr.
Compound 4 (50 μM) or compound 5 (50 μM) was then added for 6 hrs. […]
following incubation at 48.1 °C. Vinculin was used for loaing control. All blots are […]

eIF4E:eIF4G interaction, sequence (P06730 2-217 limits assumed): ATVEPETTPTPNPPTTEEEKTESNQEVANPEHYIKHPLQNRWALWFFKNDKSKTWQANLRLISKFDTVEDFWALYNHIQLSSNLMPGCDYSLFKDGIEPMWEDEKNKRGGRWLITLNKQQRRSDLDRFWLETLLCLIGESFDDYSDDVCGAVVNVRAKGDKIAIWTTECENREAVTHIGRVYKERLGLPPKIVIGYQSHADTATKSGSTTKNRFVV
T1 sequence (P06730 whole entry W73F): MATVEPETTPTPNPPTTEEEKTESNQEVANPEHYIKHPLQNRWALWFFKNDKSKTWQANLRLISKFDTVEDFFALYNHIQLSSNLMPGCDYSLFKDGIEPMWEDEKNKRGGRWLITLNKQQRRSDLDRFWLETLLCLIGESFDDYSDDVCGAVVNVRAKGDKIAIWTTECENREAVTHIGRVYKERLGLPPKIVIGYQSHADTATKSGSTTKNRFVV

## CC[C@H](O[C@H](C)CO)c1ccc(-c2ccccc2F)cc1NCCO [Compound 4]
eIF4E:eIF4G interaction; 0.4 μM
  eIF4G:eIF4E luminescence signal normalised to DMSO control: 89% and 92.6%
eIF4E:eIF4G interaction; 4 μM
  eIF4G:eIF4E luminescence signal normalised to DMSO control: 47.4% and 46.9%
eIF4E:eIF4G interaction; 12 μM
  eIF4G:eIF4E luminescence signal normalised to DMSO control: 33.5% and 31.6%
eIF4E:eIF4G interaction; 40 μM
  eIF4G:eIF4E luminescence signal normalised to DMSO control: 20.4% and 20.8%
eIF4E:eIF4G interaction; SW620 lysates, 100 µM, 30 min, single experiments Expt 1, Expt 2
  eIF4G:eIF4E SW620, luminescence ratio normalised to DMSO control: 23% and 19%
eIF4E:eIF4G interaction; read-out: EC50, eIF4G binding to eIF4E, SW620 cell lysates, 30 min
  EC50: 2600 nM
eIF4E W73F
  thermal stabilisation of W73F eIF4E: destabilised, rather than stabilised

Reference: article PMC11868579 (Nature Communications, 2024)
